Test results: patent US10703733B2, “MCL-1 inhibitors” (Gilead Sciences, Inc., priority 2018, dated 2020)
Where two headings read alike, the source gives them in different places.

Assays:
[1] = tested on: SKBR3 cells; experiment: SKBR3 Cell Viability Assay (CellTiter Glo); format: cell-based; conditions: CellTiter Glo luminescence, read-out: MCL-1 CV SKBR3 EC50
In short: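 SKBR3 cells (6,000/well) in McCoy 5A + 10% FBS exposed to serially diluted compound for 72 h at 37° C., 5% CO2. Viability by CellTiter Glo luminescence; % inhibition normalized to DMSO (negative) and 10 μM puromycin (positive).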

[2] = biological target: MCL-1/Bim interaction (recombinant human MCL-1 protein, residues 171-327; biotinylated human Bim peptide, residues 51-76) (Homo sapiens (Human), UniProt Q07820); experiment: MCL-1/Bim Binding AlphaLISA Assay; conditions: 0.0625 nM 6xHis-Mcl-1 (171-327), 0.0625 nM biotinylated-Bim peptide
In short: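 AlphaLISA with 0.0625 nM His-tagged MCL-1 (171-327) and 0.0625 nM biotinylated Bim (51-76) in 20 mM Hepes pH 7.5, 150 mM NaCl, 0.002% Brij 35, 1 mM DTT, 0.01% BSA. Compound preincubated 1 h with MCL-1, then Bim 2 h, acceptor beads 1 h, donor beads 1 h; percent inhibition against DMSO and no-protein/no-peptide controls.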

MCL-1/Bim interaction (recombinant human MCL-1 protein, residues 171-327; biotinylated human Bim peptide, residues 51-76), sequence (Q07820 171-327): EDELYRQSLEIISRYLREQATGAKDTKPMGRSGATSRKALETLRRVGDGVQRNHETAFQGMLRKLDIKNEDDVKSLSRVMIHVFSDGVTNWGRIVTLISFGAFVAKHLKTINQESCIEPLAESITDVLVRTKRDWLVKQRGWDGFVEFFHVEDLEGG

## CO[C@H]1/C=C/CCC[S@@](=O)(NC(=O)NCc2cnccn2)=NC(=O)c2ccc3c(c2)N(C[C@@H]2CC[C@H]21)C[C@@]1(CCCc2cc(Cl)ccc21)CO3 [Example 80]
[1]; Homo sapiens, SK-BR-3, 72 h
  EC50: 1060 nM
[2]
  IC50: 0.3 nM

## CO[C@H]1/C=C/CCC[S@@](=O)(NC(=O)CCC2CC2)=NC(=O)c2ccc3c(c2)N(C[C@@H]2CC[C@H]21)C[C@@]1(CCCc2cc(Cl)ccc21)CO3 [Example 81]
[1]; Homo sapiens, SK-BR-3, 72 h
  EC50: 612 nM
[2]
  IC50: 0.5 nM

## CO[C@H]1/C=C/CCC[S@@](=O)(NC(=O)CCC2CCCC2)=NC(=O)c2ccc3c(c2)N(C[C@@H]2CC[C@H]21)C[C@@]1(CCCc2cc(Cl)ccc21)CO3 [Example 82]
[1]; Homo sapiens, SK-BR-3, 72 h
  EC50: 2320 nM
[2]
  IC50: 1.1 nM

## CO[C@H]1/C=C/CCC[S@@](=O)(NC(=O)[C@@H]2C[C@H]2c2ccnn2C)=NC(=O)c2ccc3c(c2)N(C[C@@H]2CC[C@H]21)C[C@@]1(CCCc2cc(Cl)ccc21)CO3 [Example 83]
[1]; 72 hours
  EC50: 460 nM
[2]
  IC50: 0.1 nM

## CO[C@H]1/C=C/CCC[S@](=O)(NC(=O)[C@@H]2C[C@H]2c2ccnn2C)=NC(=O)c2ccc3c(c2)N(C[C@@H]2CC[C@H]21)C[C@@]1(CCCc2cc(Cl)ccc21)CO3 [Example 84]
[1]; 72 hours
  EC50: 783 nM
[2]
  IC50: 0.1 nM

## CO[C@H]1/C=C/CCC[S@@](=O)(NC(=O)CCCn2cccn2)=NC(=O)c2ccc3c(c2)N(C[C@@H]2CC[C@H]21)C[C@@]1(CCCc2cc(Cl)ccc21)CO3 [Example 85]
[1]; Homo sapiens, SK-BR-3, 72 h
  EC50: 3090 nM
[2]
  IC50: 0.6 nM

## CO[C@H]1/C=C/CCC[S@@](=O)(NC(=O)Cc2cn3ccccc3n2)=NC(=O)c2ccc3c(c2)N(C[C@@H]2CC[C@H]21)C[C@@]1(CCCc2cc(Cl)ccc21)CO3 [Example 86]
[1]; Homo sapiens, SK-BR-3, 72 h
  EC50: 4910 nM
[2]
  IC50: 1.8 nM

## CO[C@H]1/C=C/CCC[S@@](=O)(NC(=O)CCc2ccccc2C(F)(F)F)=NC(=O)c2ccc3c(c2)N(C[C@@H]2CC[C@H]21)C[C@@]1(CCCc2cc(Cl)ccc21)CO3 [Example 87]
[1]; Homo sapiens, SK-BR-3, 72 h
  EC50: 10000 nM
[2]
  IC50: 3.2 nM

## CO[C@H]1/C=C/CCC[S@@](=O)(NC(=O)CCc2ccco2)=NC(=O)c2ccc3c(c2)N(C[C@@H]2CC[C@H]21)C[C@@]1(CCCc2cc(Cl)ccc21)CO3 [Example 88]
[1]; Homo sapiens, SK-BR-3, 72 h
  EC50: 2570 nM
[2]
  IC50: 1.5 nM

## CO[C@H]1/C=C/CCC[S@@](=O)(NC(=O)CCc2cc(C)nn2C)=NC(=O)c2ccc3c(c2)N(C[C@@H]2CC[C@H]21)C[C@@]1(CCCc2cc(Cl)ccc21)CO3 [Example 89]
[1]; Homo sapiens, SK-BR-3, 72 h
  EC50: 855 nM
[2]
  IC50: 0.5 nM

## CO[C@H]1/C=C/CCC[S@@](=O)(NC(=O)CCc2ccc(Cl)cc2)=NC(=O)c2ccc3c(c2)N(C[C@@H]2CC[C@H]21)C[C@@]1(CCCc2cc(Cl)ccc21)CO3 [Example 90]
[1]; Homo sapiens, SK-BR-3, 72 h
  EC50: 4560 nM
[2]
  IC50: 0.5 nM

## CO[C@H]1/C=C/CCC[S@@](=O)(NC(=O)CCc2nccs2)=NC(=O)c2ccc3c(c2)N(C[C@@H]2CC[C@H]21)C[C@@]1(CCCc2cc(Cl)ccc21)CO3 [Example 91]
[1]; Homo sapiens, SK-BR-3, 72 h
  EC50: 616 nM
[2]
  IC50: 0.1 nM

## CO[C@H]1/C=C/CCC[S@@](=O)(NC(=O)CCc2ccnn2CC(F)(F)F)=NC(=O)c2ccc3c(c2)N(C[C@@H]2CC[C@H]21)C[C@@]1(CCCc2cc(Cl)ccc21)CO3 [Example 92]
[1]; Homo sapiens, SK-BR-3, 72 h
  EC50: 245 nM
[2]
  IC50: 0.1 nM

## CO[C@H]1/C=C/CCC[S@@](=O)(NC(=O)CCc2scnc2C)=NC(=O)c2ccc3c(c2)N(C[C@@H]2CC[C@H]21)C[C@@]1(CCCc2cc(Cl)ccc21)CO3 [Example 93]
[1]; Homo sapiens, SK-BR-3, 72 h
  EC50: 4820 nM
[2]
  IC50: 51 nM

## CO[C@H]1/C=C/CCC[S@@](=O)(NC(=O)CCC(F)(F)F)=NC(=O)c2ccc3c(c2)N(C[C@@H]2CC[C@H]21)C[C@@]1(CCCc2cc(Cl)ccc21)CO3 [Example 94]
[1]; Homo sapiens, SK-BR-3, 72 h
  EC50: 902 nM
[2]
  IC50: 0.9 nM

## CO[C@H]1/C=C/CCC[S@@](=O)(NC(=O)CCCC(F)(F)F)=NC(=O)c2ccc3c(c2)N(C[C@@H]2CC[C@H]21)C[C@@]1(CCCc2cc(Cl)ccc21)CO3 [Example 95]
[1]; Homo sapiens, SK-BR-3, 72 h
  EC50: 1100 nM
[2]
  IC50: 1.1 nM

## CO[C@H]1/C=C/CCC[S@@](=O)(NC(=O)COc2ccccc2)=NC(=O)c2ccc3c(c2)N(C[C@@H]2CC[C@H]21)C[C@@]1(CCCc2cc(Cl)ccc21)CO3 [Example 96]
[1]; Homo sapiens, SK-BR-3, 72 h
  EC50: 604 nM
[2]
  IC50: 0.4 nM

## CO[C@H]1/C=C/CCC[S@@](=O)(NC(=O)CCc2ccccc2)=NC(=O)c2ccc3c(c2)N(C[C@@H]2CC[C@H]21)C[C@@]1(CCCc2cc(Cl)ccc21)CO3 [Example 97]
[1]; Homo sapiens, SK-BR-3, 72 h
  EC50: 788 nM
[2]
  IC50: 0.6 nM

## CO[C@H]1/C=C/CCC[S@@](=O)(NC(=O)c2cc3ccccc3n2C)=NC(=O)c2ccc3c(c2)N(C[C@@H]2CC[C@H]21)C[C@@]1(CCCc2cc(Cl)ccc21)CO3 [Example 98]
[1]; Homo sapiens, SK-BR-3, 72 h
  EC50: 2190 nM
[2]
  IC50: 0.3 nM

## CO[C@H]1/C=C/CCC[S@@](=O)(NC(=O)CCc2csc(C)n2)=NC(=O)c2ccc3c(c2)N(C[C@@H]2CC[C@H]21)C[C@@]1(CCCc2cc(Cl)ccc21)CO3 [Example 99]
[1]; Homo sapiens, SK-BR-3, 72 h
  EC50: 2090 nM
[2]
  IC50: 0.2 nM

## CO[C@H]1/C=C/CCC[S@@](=O)(NC(=O)COc2ccnn2C)=NC(=O)c2ccc3c(c2)N(C[C@@H]2CC[C@H]21)C[C@@]1(CCCc2cc(Cl)ccc21)CO3 [Example 100]
[1]; Homo sapiens, SK-BR-3, 72 h
  EC50: 2260 nM
[2]
  IC50: 0.2 nM

## CO[C@H]1/C=C/CCC[S@@](=O)(NC(=O)CCc2ncsc2C)=NC(=O)c2ccc3c(c2)N(C[C@@H]2CC[C@H]21)C[C@@]1(CCCc2cc(Cl)ccc21)CO3 [Example 101]
[1]; Homo sapiens, SK-BR-3, 72 h
  EC50: 2590 nM
[2]
  IC50: 1.4 nM

## CO[C@H]1/C=C/CCC[S@@](=O)(NC(=O)CCc2nnc(C)s2)=NC(=O)c2ccc3c(c2)N(C[C@@H]2CC[C@H]21)C[C@@]1(CCCc2cc(Cl)ccc21)CO3 [Example 102]
[1]; Homo sapiens, SK-BR-3, 72 h
  EC50: 891 nM
[2]
  IC50: 0.3 nM

## CO[C@H]1/C=C/CCC[S@@](=O)(NC(=O)CCc2c(C)cnn2C)=NC(=O)c2ccc3c(c2)N(C[C@@H]2CC[C@H]21)C[C@@]1(CCCc2cc(Cl)ccc21)CO3 [Example 103]
[1]; Homo sapiens, SK-BR-3, 72 h
  EC50: 10000 nM
[2]
  IC50: 1 nM

## CO[C@H]1/C=C/CCC[S@@](=O)(NC(=O)COC2CCOCC2)=NC(=O)c2ccc3c(c2)N(C[C@@H]2CC[C@H]21)C[C@@]1(CCCc2cc(Cl)ccc21)CO3 [Example 105]
[1]; Homo sapiens, SK-BR-3, 72 h
  EC50: 351 nM
[2]
  IC50: 0.1 nM

## CO[C@H]1/C=C/C[C@H](C)C[S@@](=O)(NC(=O)Nc2ncccn2)=NC(=O)c2ccc3c(c2)N(C[C@@H]2CC[C@H]21)C[C@@]1(CCCc2cc(Cl)ccc21)CO3 [Example 111]
[1]; Homo sapiens, SK-BR-3, 72 h
  EC50: 721 nM
[2]
  IC50: 0.093 nM

## CO[C@H]1/C=C/C[C@H](C)C[S@@](=O)(NC(=O)N[C@H]2CCOC2)=NC(=O)c2ccc3c(c2)N(C[C@@H]2CC[C@H]21)C[C@@]1(CCCc2cc(Cl)ccc21)CO3 [Example 112]
[1]; Homo sapiens, SK-BR-3, 72 h
  EC50: 73.2 nM
[2]
  IC50: 0.047 nM

## COC(=O)N1CC(NC(=O)N[S@@]2(=O)=NC(=O)c3ccc4c(c3)N(C[C@@H]3CC[C@H]3[C@@H](OC)/C=C/C[C@H](C)C2)C[C@@]2(CCCc3cc(Cl)ccc32)CO4)C1 [Example 114]
[1]; Homo sapiens, SK-BR-3, 72 h
  EC50: 154 nM
[2]
  IC50: 0.043 nM

## CO[C@H]1/C=C/C[C@H](C)C[S@@](=O)(NC(=O)N[C@@H]2C[C@@H]2F)=NC(=O)c2ccc3c(c2)N(C[C@@H]2CC[C@H]21)C[C@@]1(CCCc2cc(Cl)ccc21)CO3 [Example 116]
[1]; Homo sapiens, SK-BR-3, 72 h
  EC50: 141 nM
[2]
  IC50: 0.08 nM

## CO[C@H]1/C=C/C[C@H](C)C[S@@](=O)(NC(=O)N[C@H]2C[C@@H]2C)=NC(=O)c2ccc3c(c2)N(C[C@@H]2CC[C@H]21)C[C@@]1(CCCc2cc(Cl)ccc21)CO3 [Example 117]
[1]; Homo sapiens, SK-BR-3, 72 h
  EC50: 82.9 nM
[2]
  IC50: 0.113 nM

## CO[C@H]1/C=C/C[C@H](C)C[S@@](=O)(NC(=O)c2cc(Cl)n(C)c2)=NC(=O)c2ccc3c(c2)N(C[C@@H]2CC[C@H]21)C[C@@]1(CCCc2cc(Cl)ccc21)CO3 [Example 118]
[1]; Homo sapiens, SK-BR-3, 72 h
  EC50: 184 nM
[2]
  IC50: 0.103 nM

## CO[C@H]1/C=C/C[C@H](C)C[S@@](=O)(NC(=O)c2cnn(C(F)F)c2)=NC(=O)c2ccc3c(c2)N(C[C@@H]2CC[C@H]21)C[C@@]1(CCCc2cc(Cl)ccc21)CO3 [Example 119]
[1]; Homo sapiens, SK-BR-3, 72 h
  EC50: 93.8 nM
[2]
  IC50: 0.145 nM

## COCCn1cc(C(=O)N[S@@]2(=O)=NC(=O)c3ccc4c(c3)N(C[C@@H]3CC[C@H]3[C@@H](OC)/C=C/C[C@H](C)C2)C[C@@]2(CCCc3cc(Cl)ccc32)CO4)cn1 [Example 120]
[1]; Homo sapiens, SK-BR-3, 72 h
  EC50: 106 nM
[2]
  IC50: 0.167 nM

## CO[C@H]1/C=C/C[C@H](C)C[S@@](=O)(NC(=O)[C@@H](O)Cc2ccccc2)=NC(=O)c2ccc3c(c2)N(C[C@@H]2CC[C@H]21)C[C@@]1(CCCc2cc(Cl)ccc21)CO3 [Example 121]
[1]; Homo sapiens, SK-BR-3, 72 h
  EC50: 71.5 nM
[2]
  IC50: 0.163 nM

## CO[C@H]1/C=C/C[C@H](C)C[S@@](=O)(NC(=O)[C@H](O)Cc2ccccc2)=NC(=O)c2ccc3c(c2)N(C[C@@H]2CC[C@H]21)C[C@@]1(CCCc2cc(Cl)ccc21)CO3 [Example 122]
[1]; Homo sapiens, SK-BR-3, 72 h
  EC50: 113 nM
[2]
  IC50: 0.161 nM
